Source: ChEMBL document CHEMBL4028827, “Discovery of indazole aldosterone synthase (CYP11B2) inhibitors as potential treatments for hypertension” (Bioorg Med Chem Lett, 2017)

Columns and labels:
[1] = target: T1, Cytochrome P450 11B2, mitochondrial (Homo sapiens, UniProt P19099); test: Inhibition of human CYP11B2-CLE9 expressed in Chinese hamster V79 cells using 11-deoxycorticosterone as substrate preincubated for 1 hr followed by substrate addition measured for 3 hrs by HTRF assay; type: cell-based
T1 sequence (P19099 whole entry): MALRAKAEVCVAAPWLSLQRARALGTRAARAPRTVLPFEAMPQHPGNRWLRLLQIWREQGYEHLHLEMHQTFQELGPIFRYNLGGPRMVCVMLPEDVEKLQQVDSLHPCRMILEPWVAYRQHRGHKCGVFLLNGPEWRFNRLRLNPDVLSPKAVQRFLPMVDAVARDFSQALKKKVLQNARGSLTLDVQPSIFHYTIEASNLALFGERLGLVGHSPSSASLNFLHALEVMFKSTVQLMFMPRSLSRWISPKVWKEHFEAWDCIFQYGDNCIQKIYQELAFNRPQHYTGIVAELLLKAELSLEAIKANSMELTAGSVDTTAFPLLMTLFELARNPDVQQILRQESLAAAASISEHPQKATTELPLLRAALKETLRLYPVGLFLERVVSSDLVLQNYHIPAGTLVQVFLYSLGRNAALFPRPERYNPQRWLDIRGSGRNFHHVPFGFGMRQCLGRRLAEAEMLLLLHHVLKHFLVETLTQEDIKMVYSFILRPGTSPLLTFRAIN

[2] = target: T2, Cytochrome P450 11B1, mitochondrial (Homo sapiens, UniProt P15538); test: Inhibition of human CYP11B1-8C7 expressed in Chinese hamster V79 cells using 11-deoxycortisol as substrate preincubated for 1 hr followed by substrate addition measured for 3 hrs by HTRF assay; type: ADME, cell-based
T2 sequence (P15538 whole entry): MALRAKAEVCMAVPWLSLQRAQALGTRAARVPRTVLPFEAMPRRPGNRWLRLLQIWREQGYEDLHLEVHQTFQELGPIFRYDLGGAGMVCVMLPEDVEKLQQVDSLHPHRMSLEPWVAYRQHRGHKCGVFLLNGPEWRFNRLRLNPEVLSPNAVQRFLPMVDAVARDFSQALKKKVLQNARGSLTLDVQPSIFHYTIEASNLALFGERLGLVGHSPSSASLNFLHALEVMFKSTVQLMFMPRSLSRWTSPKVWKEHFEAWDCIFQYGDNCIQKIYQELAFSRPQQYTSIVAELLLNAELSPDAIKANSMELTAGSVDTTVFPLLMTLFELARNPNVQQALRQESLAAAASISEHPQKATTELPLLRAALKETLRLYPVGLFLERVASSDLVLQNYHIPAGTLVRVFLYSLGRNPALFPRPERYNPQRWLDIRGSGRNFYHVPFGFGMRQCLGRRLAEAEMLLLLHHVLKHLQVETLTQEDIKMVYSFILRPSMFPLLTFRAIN

[3] = Selectivity ratio of IC50 for human CYP11B1-8C7 expressed in Chinese hamster V79 cells to IC50 for human CYP11B2-CLE9 expressed in Chinese hamster V79 cells
[4] = Intrinsic clearance in rat liver microsomes at […] preincubated for 10 mins followed by NADPH addition measured after 45 mins by LC-MS analysis; type: ADME, microsome; details: read-out: CLH

## Cc1cccc2c1cnn2-c1cncc(C(C)(C)O)c1
[1]
  IC50: 7.77 to 8 nM
[2]
  IC50: 210 nM
[3]
  Ratio IC50: 27

## CC(C)(O)c1cncc(-n2ncc3ccc(Cl)cc32)c1
[1]
  IC50: 528 to 530 nM
[2]
  IC50: 8300 to 8330 nM
[3]
  Ratio IC50: >16

## COc1cncc(-n2ncc3cc(F)ccc32)c1
[1]
  IC50: 44 to 44.1 nM
[2]
  IC50: 1300 nM
[3]
  Ratio IC50: 30

## Fc1ccc2c(cnn2-c2cccnc2)c1
[1]
  IC50: 217 to 220 nM
[2]
  IC50: 8300 to 8330 nM
[3]
  Ratio IC50: >38
[4]
  CLint scaled: 43 mL/min/kg

## CC(C)(O)c1cncc(-n2ncc3c(F)ccc(F)c32)c1
[1]
  IC50: 0.3 to 0.8 nM
[2]
  IC50: 1.8 to 8.9 nM
[3]
  Ratio IC50: 6 - 11
[4]
  CLint scaled: < 20 mL/min/kg

## COc1nn(-c2cncc(C(C)(C)O)c2)c2ccccc12
[1]
  IC50: 25 nM
[2]
  IC50: 1400 to 1410 nM
[3]
  Ratio IC50: 57

## CC(C)(O)c1cncc(-n2nc(C(F)(F)F)c3ccccc32)c1
[1]
  IC50: 300 to 304 nM
[2]
  IC50: 8300 to 8330 nM
[3]
  Ratio IC50: >27

## CC(C)(O)c1cncc(-n2ncc3cc(C(F)(F)F)ccc32)c1
[1]
  IC50: 507 to 510 nM
[2]
  IC50: 1200 to 1240 nM
[3]
  Ratio IC50: 2
[4]
  CLint scaled: < 20 mL/min/kg

## CC(C)(O)c1cncc(-n2ncc3cccc(F)c32)c1
[1]
  IC50: 0.9 nM
[2]
  IC50: 10.7 to 11 nM
[3]
  Ratio IC50: 12
[4]
  CLint scaled: < 20 mL/min/kg

## CC(C)(O)c1cncc(-n2ncc3cc(Cl)ccc32)c1
[1]
  IC50: 27 to 27.3 nM
[2]
  IC50: 470 nM
[3]
  Ratio IC50: 17

## CC(C)(O)c1cncc(-n2ncc3ccc(C(F)(F)F)cc32)c1
[1]
  IC50: 2300 nM
[2]
  IC50: 8300 to 8330 nM
[3]
  Ratio IC50: >4

## Fc1ccc2c(cnn2-c2cncc(C(F)(F)F)c2)c1
[1]
  IC50: 88 to 88.3 nM
[2]
  IC50: 1690 to 1700 nM
[3]
  Ratio IC50: 19
[4]
  CLint scaled: 300 mL/min/kg

## CC(C)(O)c1cncc(-n2ncc3c(F)cccc32)c1
[1]
  IC50: 7.58 to 8 nM
[2]
  IC50: 149 to 150 nM
[3]
  Ratio IC50: 19
[4]
  CLint scaled: 64 mL/min/kg

## Cc1nn(-c2cncc(C(C)(C)O)c2)c2ccccc12
[1]
  IC50: 33.5 to 34 nM
[2]
  IC50: 779 to 780 nM
[3]
  Ratio IC50: 44

## CC(C)(O)c1cncc(-n2ncc3ccccc32)c1
[1]
  IC50: 15 to 15.1 nM
[2]
  IC50: 535 to 540 nM
[3]
  Ratio IC50: 36
[4]
  CLint scaled: < 20 mL/min/kg

## CC(C)(O)c1cncc(-n2ncc3ccc(F)cc32)c1
[1]
  IC50: 78.5 to 79 nM
[2]
  IC50: 1990 to 2000 nM
[3]
  Ratio IC50: 25
[4]
  CLint scaled: 83 mL/min/kg

## Fc1cncc(-n2ncc3cc(F)ccc32)c1
[1]
  IC50: 456 to 460 nM
[2]
  IC50: 8300 to 8330 nM
[3]
  Ratio IC50: >18
[4]
  CLint scaled: 85 mL/min/kg

## COC(=O)c1cccc2c1cnn2-c1cncc(C(C)(C)O)c1
[1]
  IC50: 22 to 22.1 nM

## CC(C)(O)c1cncc(-n2ncc3cc(F)ccc32)c1
[1]
  IC50: 10.9 to 13 nM
[2]
  IC50: 197 to 210 nM
[3]
  Ratio IC50: 15 - 19
[4]
  CLint scaled: 30 mL/min/kg

## COC(=O)c1cncc(-n2ncc3cc(F)ccc32)c1
[1]
  IC50: 31 nM
[2]
  IC50: 520 nM
[3]
  Ratio IC50: 17

## CC(C)(O)c1cncc(-n2ncc3c(Cl)ccc(F)c32)c1
[1]
  IC50: 0.2 to 0.4 nM
[2]
  IC50: 1.1 to 7.72 nM
[3]
  Ratio IC50: 5 - 20

## CC(C)(O)c1cncc(-n2nc(C3CC3)c3ccccc32)c1
[1]
  IC50: 760 to 763 nM
[2]
  IC50: 8300 to 8330 nM
[3]
  Ratio IC50: >11

## CC(C)(O)c1cncc(-n2ncc3cc(C#N)ccc32)c1
[1]
  IC50: 1160 nM
[2]
  IC50: 8300 to 8330 nM
[3]
  Ratio IC50: >7

## COc1ccc2c(cnn2-c2cncc(C(C)(C)O)c2)c1
[1]
  IC50: 84.9 to 85 nM
[2]
  IC50: 1000 nM
[3]
  Ratio IC50: 12

## Cc1ccc2c(cnn2-c2cncc(C(C)(C)O)c2)c1
[1]
  IC50: 97.9 to 98 nM
[2]
  IC50: 916 to 920 nM
[3]
  Ratio IC50: 9

## CC(O)(c1cncc(-n2ncc3cc(F)ccc32)c1)C(F)(F)F (configuration not stated)
[1]
  IC50: 2 to 2.13 nM
[2]
  IC50: 47 to 47.4 nM
[3]
  Ratio IC50: 24
[4]
  CLint scaled: 230 mL/min/kg
